Assay results from ChEMBL document CHEMBL5518208 (J Med Chem, 2024).

Experiments:
Assay type in all cases: ADME, organism-based
[1] = Observed AUC infinity in male ICR mouse at 25 mg/kg, po measured upto 24 hrs by LC-MS/MS analysis; conditions: in vivo
[2] = Drug concentration in BALB/c mouse plasma at 100 mg/kg, sc measured after 0.5 hrs by LC-MS/MS analysis
[3] = Observed MRT infinity in male ICR mouse at 5 mg/kg, iv measured upto 24 hrs by LC-MS/MS analysis; conditions: in vivo
[4] = Tmax in male ICR mouse at 25 mg/kg, po measured upto 24 hrs by LC-MS/MS analysis; conditions: in vivo
[5] = Drug concentration in BALB/c mouse plasma at 100 mg/kg, sc measured after 4 hrs by LC-MS/MS analysis
[6] = Drug concentration in BALB/c mouse plasma at 100 mg/kg, sc measured after 2 hrs by LC-MS/MS analysis
[7] = Observed MRT infinity in male ICR mouse at 25 mg/kg, po measured upto 24 hrs by LC-MS/MS analysis; conditions: in vivo
[8] = Observed AUC infinity in male ICR mouse at 5 mg/kg, iv measured upto 24 hrs by LC-MS/MS analysis; conditions: in vivo
[9] = Observed clearance in male ICR mouse at 5 mg/kg, iv measured upto 24 hrs by LC-MS/MS analysis; conditions: in vivo
[10] = Half life in male ICR mouse at 25 mg/kg, po measured upto 24 hrs by LC-MS/MS analysis; conditions: in vivo
[11] = AUC last in male ICR mouse at 5 mg/kg, iv measured upto 24 hrs by LC-MS/MS analysis; conditions: in vivo
[12] = Half life in male ICR mouse at 5 mg/kg, iv measured upto 24 hrs by LC-MS/MS analysis; conditions: in vivo
[13] = Drug concentration in BALB/c mouse plasma at 100 mg/kg, sc measured after 1 hrs by LC-MS/MS analysis
[14] = Observed volume of distribution at steady state in male ICR mouse at 5 mg/kg, iv measured upto 24 hrs by LC-MS/MS analysis; conditions: in vivo, read-out: Vdss
[15] = AUC last in male ICR mouse at 25 mg/kg, po measured upto 24 hrs by LC-MS/MS analysis; conditions: in vivo
[16] = Cmax in male ICR mouse at 25 mg/kg, po measured upto 24 hrs by LC-MS/MS analysis; conditions: in vivo

O=c1ccc2c(N3C[C@@H]4[C@@H](CCP(=O)(O)O)[C@@H]4C3)ncnc2[nH]1 gave an AUC(0-inf) [1] of 965 ng·h/mL, a concentration at 0.5 h [2] of 112 µM and an MRT inf [3] of 18.6 min. The Tmax [4] was 45 min, the concentration at 4 h [5] was 0.04 µM and the concentration at 2 h [6] was 1.5 µM. For the same molecule, the MRT inf [7] was 156 min, the AUC(0-inf) [8] was 4400 ng·h/mL and the clearance [9] was 21.6 mL/min/kg. For the same molecule, the half-life [10] was 33.6 min, the AUC(0-t) at 24 h [11] was 4390 ng·h/mL and the half-life [12] was 60.6 min. It also gave a concentration at 1 h [13] of 26 µM, a Vd [14] of 0.373 L/kg and an AUC(0-t) at 24 h [15] of 932 ng·h/mL. It also gave a Cmax [16] of 352 ng/mL.
